Assay results: patent US20080248511A1, “METHODS TO QUENCH LIGHT FROM OPTICAL REACTIONS” (priority 2007, published 2008)
Where two headings read alike, the source gives them in different places.

How the values were obtained:
Renilla luciferase [1] = target: T1, Renilla luciferase (Renilla reniformis, UniProt P27652); assay: Detergent screen with Tergitol NP-9, Renilla luciferase (Example 3); type: biochemical
T1 sequence (P27652 1-311): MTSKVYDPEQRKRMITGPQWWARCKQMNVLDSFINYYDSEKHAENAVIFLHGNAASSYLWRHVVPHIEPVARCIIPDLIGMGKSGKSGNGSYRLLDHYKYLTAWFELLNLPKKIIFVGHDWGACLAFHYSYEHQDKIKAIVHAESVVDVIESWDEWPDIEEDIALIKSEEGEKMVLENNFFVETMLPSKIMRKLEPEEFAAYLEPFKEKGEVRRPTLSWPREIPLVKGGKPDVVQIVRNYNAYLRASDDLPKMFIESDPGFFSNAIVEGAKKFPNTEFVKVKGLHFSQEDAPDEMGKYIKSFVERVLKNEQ
Description: (§1) Unless otherwise specified, materials were obtained from Sigma-Aldrich.
(§2) The firefly luciferase and Renilla luciferase enzymes were diluted as follows. Firefly luciferase was diluted to 14 ng/ml in Delbecco's Minimal Essential (DMEM) medium (Gibco/Invitrogen) containing 0.1% Prionex®. Renilla luciferase was diluted to 10 ng/ml in DMEM medium containing 0.1% Prionex®.
(§3) The luciferase reactions were initiated by adding 50 μl of the firefly luciferase or Renilla luciferase enzyme solution to 50 μl of reagent solution. The reactions were performed as described above. The retained firefly luciferase and Renilla luciferase luminescence as well as the selectivity values for each quencher were calculated (Table 3). The values listed are based on 0.06% quencher in the reagent solution.

firefly luciferase [2] = target: T2, firefly luciferase (Photinus pyralis, UniProt P08659); assay: biochemical; details: 0.5% detergent in Luciferase Assay Reagent; read-out: Retained Firefly Luciferase Luminescence (%)
Description: The retained luminescence for each luciferase was calculated by dividing the luminescence in the presence of the detergent by the luminescence in the absence of the test detergent. The selectivity value for each of the test detergents was determined by dividing the retained firefly luciferase luminescence by the retained Renilla luciferase luminescence.
A set of detergents (Table 2; Sigma-Aldrich) was added at 0.5% (from a 5% or 10% stock solution) to either Luciferase Assay Reagent (Promega) or Renilla Luciferase Assay Reagent (Promega) and allowed to equilibrate at room temperature.
The firefly luciferase and Renilla luciferase enzymes were diluted as follows. Firefly luciferase was diluted to 14 ng/ml in Phosphate Buffered Saline (PBS) containing 0.1% of the protein carrier Prionex® (Pentapharm). Renilla luciferase was diluted to 10 ng/ml in 1× Renilla Luciferase Lysis Buffer (Promega) containing 0.1% Prionex®. The Renilla Luciferase Lysis Buffer […] detergent micelles when using the Renilla Luciferase Assay Reagent. In the absence of other detergents, this prevents sequestering of coelenterazine which inhibits Renilla luciferase-mediated luminescence.
The luciferase reactions were initiated by adding 40 μl of either the firefly or Renilla luciferase enzyme solution to 200 μl of the appropriate reagent solution (firefly luciferase enzyme solution+firefly luciferase reagent solution or Renilla luciferase enzyme solution+Renilla luciferase reagent solution, respectively). The reactions were performed in an opaque white, 96-well plate and luminescence was measured for 0.5 seconds per well using a Turner BioSystems Veritas™ Microplate luminometer. The retained firefly luciferase and Renilla luciferase luminescence, as well as the selectivity values for each detergent, were calculated (Table 2).

Renilla luciferase [3] = target: T1, Renilla luciferase; assay: Detergent titration with Tergitol NP-9, digitonin or no lysing agent, Renilla luciferase (Example 4); type: biochemical; details: for remaining activity at 0.0005 % / remaining activity at 0.005 % / remaining activity at 0.05 %: read-out: Relative Renilla Luc Intensity
Description: Renilla luciferase-mediated luminescence was measured from samples containing 9.6 mM phosphate buffer pH 6.8, 2.7 mM KCl, 137 mM NaCl (in PBS), 0.1% gelatin, 75 nM coelentrazine (Promega) and 10.2 ng/ml Renilla luciferase. Reactions contained either no lysing agent, 0.5% Tergitol NP-9 or 20 μg/ml digitonin. The detergents to be tested were titrated to 0.05%, 0.005% or 0.0005% in the reactions prior to the addition of the Renilla luciferase. Renilla luciferase-mediated luminescence was measured as described herein.

firefly luciferase [4] = target: T2, firefly luciferase; assay: Quaternary ammonium/phosphonium detergent screen, firefly luciferase (Example 5); type: biochemical; details: final conc. 0.03% detergent; Tergitol NP-9 present; read-out: Retained Firefly Luciferase Luminescence (%)
firefly luciferase [5] = target: T2, firefly luciferase; assay: Detergent titration with Tergitol NP-9, digitonin or no lysing agent, firefly luciferase (Example 4); type: biochemical; details: read-out: Relative Firefly Luc Intensity; for remaining activity at 0.0005 %: 0.0005% detergent; for remaining activity at 0.005 %: 0.0050% detergent; for remaining activity at 0.05 %: 0.0500% detergent
Description: For measurement of firefly luciferase-mediated luminescence, a solution containing 110 mM HEPES pH 7.5, 8 mM MgSO4, 0.05% gelatin, 7.35 ng/ml firefly luciferase (QuantiLum® Luciferase; Promega) and the content of the Steady-Glo Luciferase Substrate (Promega) at the equivalent of 1×, As in the Renilla luciferase reactions, reactions contained either no lysing agent, 0.5% Tergitol NP-9 or 20 μg/ml digitonin. The same detergents were titrated as described above and firefly luciferase-mediated luminescence was measured.

firefly luciferase [6] = target: T2, firefly luciferase; assay: Detergent screen with Tergitol NP-9, firefly luciferase (Example 3); type: biochemical; details: 0.06% quencher in reagent solution; 0.5% Tergitol NP-9
Description: as §1, §2, §3

Renilla luciferase [7] = target: T1, Renilla luciferase; assay: biochemical; type: biochemical

T2 sequence (P08659 whole entry): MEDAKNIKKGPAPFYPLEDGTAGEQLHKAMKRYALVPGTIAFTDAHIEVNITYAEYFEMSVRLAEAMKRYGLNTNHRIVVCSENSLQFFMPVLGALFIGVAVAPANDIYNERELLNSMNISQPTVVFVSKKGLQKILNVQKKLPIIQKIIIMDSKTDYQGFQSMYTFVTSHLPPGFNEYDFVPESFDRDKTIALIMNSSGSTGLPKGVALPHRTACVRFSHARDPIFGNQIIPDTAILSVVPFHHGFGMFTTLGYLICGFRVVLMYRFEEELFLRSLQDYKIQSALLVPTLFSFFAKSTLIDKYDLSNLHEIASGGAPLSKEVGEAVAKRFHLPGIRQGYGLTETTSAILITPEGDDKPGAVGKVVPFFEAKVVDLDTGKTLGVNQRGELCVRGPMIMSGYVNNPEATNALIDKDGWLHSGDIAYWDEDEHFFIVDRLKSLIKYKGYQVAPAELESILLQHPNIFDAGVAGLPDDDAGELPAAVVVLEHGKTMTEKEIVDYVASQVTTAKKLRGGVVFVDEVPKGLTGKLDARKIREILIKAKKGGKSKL

CCCCCCCCCCCC[N+](C)(C)Cc1ccccc1.[Br-] [Benzyldimethyldodecylammonium bromide] was tested, and the “Retained Renilla Luminescence (%)” value (Renilla luciferase [1]; 0.06% quencher in reagent solution, 0.5% Tergitol NP-9) was 22%, the “lowering of selectivity value relative to the screen without Tergitol NP-9” value (Renilla luciferase [1]; Tergitol NP-9 in the reagent solution) was “about 50 fold” and the “Selectivity Value” (Renilla luciferase [1]; retained firefly / retained Renilla, 0.06% quencher, 0.5% Tergitol NP-9) was 5.4. The remaining activity at 0.5 % (firefly luciferase [2]) was 20.7%, the “Selective Inhibition (Ff Luc Inh/Ren Luc Inh)” value (Renilla luciferase [3]; 0.0005% detergent, Dig) was 1.8 and the remaining activity at 0.0005 % (Renilla luciferase [3]; 0.0005% detergent, Dig) was 61%. The “Selective Inhibition (Ff Luc Inh/Ren Luc Inh)” value (Renilla luciferase [3]; 0.0005% detergent, Terg) was 1.1, the remaining activity at 0.0005 % (Renilla luciferase [3]; 0.0005% detergent, Terg) was 90% and the “Selective Inhibition (Ff Luc Inh/Ren Luc Inh)” value (Renilla luciferase [3]; 0.0005% detergent, Water) was 2.2. The remaining activity at 0.0005 % (Renilla luciferase [3]; 0.0005% detergent, Water) was 54%, the “Selective Inhibition (Ff Luc Inh/Ren Luc Inh)” value (Renilla luciferase [3]; 0.0050% detergent, Dig) was 29 and the remaining activity at 0.005 % (Renilla luciferase [3]; 0.0050% detergent, Dig) was 5%. The “Selective Inhibition (Ff Luc Inh/Ren Luc Inh)” value (Renilla luciferase [3]; 0.0050% detergent, Terg) was 1.7, the remaining activity at 0.005 % (Renilla luciferase [3]; 0.0050% detergent, Terg) was 58% and the “Selective Inhibition (Ff Luc Inh/Ren Luc Inh)” value (Renilla luciferase [3]; 0.0050% detergent, Water) was 36. For the same molecule, the remaining activity at 0.005 % (Renilla luciferase [3]; 0.0050% detergent, Water) was 4%, the remaining activity at 0.05 % (Renilla luciferase [3]; 0.0500% (w:v) detergent, Terg (0.5% Tergitol NP-9)) was 2% and the “Selective Inhibition (Ff Luc Inh/Ren Luc Inh)” value (Renilla luciferase [3]; 0.0500% detergent, Dig) was 1575. For the same molecule, the remaining activity at 0.05 % (Renilla luciferase [3]; 0.0500% detergent, Dig (20 μg/ml digitonin)) was 0.02%, the “Selective Inhibition (Ff Luc Inh/Ren Luc Inh)” value (Renilla luciferase [3]; 0.0500% detergent, Terg) was 21 and the “Selective Inhibition (Ff Luc Inh/Ren Luc Inh)” value (Renilla luciferase [3]; 0.0500% detergent, Water) was 3627. The remaining activity at 0.05 % (Renilla luciferase [3]; 0.0500% detergent, Water (no lysing agent)) was 0.02%, the remaining activity at 0.03 % (firefly luciferase [4]) was 100% and the remaining activity at 0.0005 % (firefly luciferase [5]; Dig) was 111%. It also gave a remaining activity at 0.0005 % (firefly luciferase [5]; Terg) of 96%, a remaining activity at 0.0005 % (firefly luciferase [5]; Water) of 116% and a remaining activity at 0.005 % (firefly luciferase [5]; Dig) of 139%. The remaining activity at 0.005 % (firefly luciferase [5]; Terg) was 101%, the remaining activity at 0.005 % (firefly luciferase [5]; Water) was 155% and the remaining activity at 0.05 % (firefly luciferase [5]; Dig (20 μg/ml digitonin)) was 37%. For the same molecule, the remaining activity at 0.05 % (firefly luciferase [5]; Terg (0.5% Tergitol NP-9)) was 50%, the remaining activity at 0.05 % (firefly luciferase [5]; Water (no lysing agent)) was 79% and the “Retained Firefly Luminescence (%)” value (firefly luciferase [6]) was 119%. For the same molecule, the remaining activity at 0.5 % (Renilla luciferase [7]; 0.5% detergent in Renilla Luciferase Assay Reagent, read-out: Retained Renilla Luciferase Luminescence (%)) was 0.08% and the “Selectivity Value” (Renilla luciferase [7]; retained firefly / retained Renilla, 0.5% detergent) was 259.9.
